This is an account of results in patent US7229651B2, “Dietary supplements containing natural ingredients” (Melaleuca, Inc., priority 1998, dated 2007).

The test system of experiment [1] is in vivo platelet activity (acute platelet thrombus formation). The following applies: cited from earlier work.
The next experiment deals with platelet activity. The following applies: aspirin, blood aggregometry test; cited from earlier work.
The subject of another experiment is LDL cholesterol. Description: Copper ion catalysed LDL cholesterol oxidation (conjugated dienes at 234 nm, lag time). The experiment is classed as biochemical, human. From the text: LDL cholesterol oxidation or protection therefrom can be determined by several methods. Kleinveld et al., Clin. Chem., 38(10):2066–2072 (1992) describes the methods for the LDL oxidation experiments described and used herein. A preferred way to practice the method encompasses extracting LDL cholesterol from whole blood samples collected from a subject using standard techniques. The extracted LDL cholesterol is divided into control and experimental samples. LDL oxidation is catalyzed by adding a copper ion solution to each LDL cholesterol sample. Copper ions are known to catalyze and enhance LDL cholesterol oxidation. […]
Copper ions accelerate the production of conjugated dienes in LDL cholesterol oxidation, which absorb light at 234 nm. Therefore, LDL cholesterol oxidation is monitored by following the increase in absorbance at 234 nm as a function of time as shown in FIG. 6. […]
As described above, LDL cholesterol oxidation is commonly measured by observing absorbance at 234 nm (Abs234nm) as a function of time while the LDL cholesterol is exposed to oxidative conditions. The antioxidant effectiveness of PROVEXCV™ and other substances was determined.
LDL cholesterol was prepared from human volunteer blood samples. […] To each sample a measured amount of copper ions was added.
After mixing, the Abs234nm of each solution was then monitored as a function of time. […]

For `CC(=O)Oc1ccccc1C(=O)O` [aspirin], the “dogs with renewed CFR's on epinephrine infusion” value in experiment [1] (after abolishment of CFR's with 5–10 mg/kg of aspirin) was 50–60 % of dogs. For the same molecule, the “effect on CFR's” value in experiment [1] (aspirin, Folts model, literature) is “eliminates CFR's”. Further, in experiment [1] (aspirin, known value), the “dosage at which platelet activity is inhibited” value was 5 mg/kg. Moreover, the “reactivation of inhibited platelet activity on epinephrine” value in experiment [1] (aspirin, epinephrine 0.2 μg/Kg/min intravenously) is “can be reactivated”. For the same molecule, in the experiment with platelet activity, the “decrease of platelet activity, collagen stimulated” value is reported as 30–40%.

In the case of vitamin E, the “lag time before LDL oxidation begins vs native LDL” value in the experiment on LDL cholesterol (Vitamin E 5.3 mg/L, CuCl2 5 μmol/L, 30° C., FIG. 8) is given as “delayed”. Moreover, the “time LDL cholesterol protected from oxidation (lag time)” value with LDL cholesterol (vitamin E at the described concentration, copper ions) is on record as “about 95 minutes”.
